Experimental data as given in patent US20260183209A1, “USE OF SANDALORE FOR IMPROVING THE STRUCTURE OF HAIR” (WELLA GERMANY GMBH, priority 2022, published 2026).

Tests used:
[1] = target: T1, olfactory receptor OR2AT4 (Homo sapiens, UniProt A6NND4); settings: receptor expressed in the epithelium of human hair follicles; cited from earlier work
T1 sequence (A6NND4 1-320): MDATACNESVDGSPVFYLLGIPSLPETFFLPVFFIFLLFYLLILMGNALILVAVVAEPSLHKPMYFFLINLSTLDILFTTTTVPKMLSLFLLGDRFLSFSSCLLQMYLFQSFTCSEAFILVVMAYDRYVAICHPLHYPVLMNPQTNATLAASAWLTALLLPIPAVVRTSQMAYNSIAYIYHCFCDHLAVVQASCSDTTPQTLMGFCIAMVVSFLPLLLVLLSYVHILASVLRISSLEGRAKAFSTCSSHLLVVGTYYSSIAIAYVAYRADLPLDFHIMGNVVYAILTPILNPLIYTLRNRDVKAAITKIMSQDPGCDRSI

keratin 85 (KRT85) = assay: Keratin 85 expression, fluorescence intensity in the precortical hair matrix of ex vivo human scalp skin sections; type: cell-based
Protocol: (§1) The “cross-section” or “diameter” of hair is determined by the microscopic sectioned, newly formed hair shaft diameter in the keratogenous region (in a distance of around 200-350 μm from the ‘germative matrix’). In an ex vivo human scalp skin culture and treatment, 6 mm skin punches (hairy skin from a healthy donor) were made following the hair growth orientation and maintained in normoxic (37° C., 5% CO2) condition. After 24 h resting (and then keeping) the culture in an Air-Liquid Interphase, two topical treatment were performed (day 1 and 3). Punches were embedded in an optimal cutting temperature compound after 5 days of ex vivo culture and cryosectioned (7 μm sections). The average value is calculated from 5 independent measurements for each hair follicle (HF).
Expression of keratin 85 (KRT85) is set by fluorescence intensity in the precortical hair matrix with a fluorescence microscope at 20× magnification. Skin sections were co-stained o.n. at 4° C. with a guinea pig anti-KRT85 antibody (Progen, 1:200) followed by DAPI (IUPAC: 4′,6-Diamidino-2-phenylindol) counterstain to visualize the nuclei. The mean KRT85 expression value was calculated from all hair follicles with Image J software within each donor, and fold changes values versus vehicle group were determined.

[2] = test system: hair follicles of ex vivo human scalp skin culture; assay: Cross-section / hair shaft diameter in ex vivo human scalp skin culture; type: cell-based
Protocol: as §1
In an ex vivo human scalp skin culture, punches (hairy skin from a human donors) were twice (day 1 and 3) treated topically, and analysed via crysectioning after 5 days. The average value for each hair follicle (HF) is calculated from 5 independent measurements, and the following table indicates the mean of all average values over the total number of hair follices (#HFs) measured.

Structure (SMILES): CC1=CCC(CCC(C)C(C)O)C1(C)C (centres unmarked) [Sandalore, 3-methyl-5-(2,2,3-trimethylcyclopent-3-en-1-yl) pentan-2-ol]
- effect on olfactory receptor OR2AT4 [1]: stimulatory effect
- KRT85 expression, change vs vehicle group (keratin 85 (KRT85); fluorescence intensity, anti-KRT85 antibody staining, precortical hair matrix, mean over hair follicles): 1.347 fold
- KRT85 expression, comparison in words (keratin 85 (KRT85); fold change values, vs vehicle group or vs Sandalore alone): significantly higher
- effect on hair shaft diameter as compared to vehicle ([2]; ex vivo human scalp skin culture, vs vehicle): increases the hair shaft diameter significantly
- hair shaft diameter ([2]; ex vivo human scalp skin punches, topical treatment day 1 and 3, cryosectioned after 5 days, mean over all hair follicles): 51.1 μm
